This assay deals with Trichophyton rubrum. As to the kind of experiment: In vitro flat bed static diffusion model, kill curves of Trichophyton rubrum. It is filed as cell-based. The conditions noted are these: for effect of peroxidase in disc at lowest concentration compared to the test treatment alone: 1 μg ml^−1 enzyme in disc plus active topical treatment; for potentiation of the effects of the topical treatment by peroxidase within the disc (words): 1, 100 and 500 μg/ml enzyme in disc plus active topical treatment; for relative potency of horseradish peroxidase versus lactoperoxidase in enhancing fungal killing (words): enzyme in disc plus active topical treatment. On the procedure:
Test discs were soaked in 50% serum containing 10^7 fungal cells to re-create a high protein environment. They were placed on a gel bed, also containing 50% serum to mimic contact with the nail bed. The discs were dosed with aqueous solutions of either horse radish peroxidase or lactoperoxidase, each set of discs having different dose levels of the enzymes. Control discs were left with no peroxidase of any kind. The experiment was started by applying hydrogen peroxide generating stratified patches (see below) to the surfaces of most of the test discs, and these were left in place for defined periods of time. Some discs were left uncovered as additional experimental controls to determine how well the fungal cells survived when left untreated. At set time-intervals, representative discs were removed for sampling, and the numbers of surviving fungal cells were determined by standard methods.
An in vitro flat bed static diffusion model was utilised, based upon the techniques described in “In vitro diffusion bed, 3-day repeat challenge ‘capacity’ test for antimicrobial wound dressings”, J. Greenman, R. M. S. Thorn, S. Saad, A. Austin International Wound Journal (2006), 3, 322-329.
The test inoculum was prepared by emulsifying mature surface growth biomass of Trichophyton rubrum on potato dextrose agar in Saboraud liquid medium, removing the suspension, vortex mixing, and then allowing large particles to settle out of solution. The resulting suspension was adjusted via spectrophotometry to give a standardised inoculum around 10^7 cfu ml^−1, which is sufficiently dense to enable any fungicidal effects to be detected (>10^3 cfu reduction is seen as indicative of a cidal effect).
A 100 μl volume of the defined inocula was re-suspended in replicate cellulose discs on the surface of a poly-AMPS test bed (the formulation of which is identical to the Layer 1 hydrogel as described in Example 1, but cast as a 25 g gel sheet per 10×10 cm dish), whereby test products can then be applied (FIG. 1). A two layer dressing was tested. The layers were prepared as described in Example 1. Lactoperoxidase or horse radish peroxidase enzymes were prepared by dissolving in analytical water at the required concentration prior to use. It is thought that lactoperoxidase may potentiate any antifungal effects of the novel topical treatment, and for some of the experimental systems cellulose discs were pre-treated with a lactoperoxidase or horseradish peroxidise solution to ascertain differential effects.
The two layer dressings were activated by bringing the two layers together. The hydrogel sheet was placed into contact with the cellulose disc and the dry film then applied to the uppermost surface of the hydrogel sheet. Test beds were incubated at 28° C., and at set time intervals (0, 1, 2, 4 & 24 h); cellulose discs were removed, re-suspended in PBSa, serially diluted and then spiral plated onto Saboraud dextrose agar. After incubation (5 days) the number of dermatophyte survivors at different time points after treatment exposure was determined by colony counting (cfu disc^−1). The results were graphed and analysed using GraphPad Prism (v.4).

Take “horseradish peroxidase [Horseradish peroxidise]”: the “effect of peroxidase in disc at lowest concentration compared to the test treatment alone” value is reported as “has a significant effect” and the “potentiation of the effects of the topical treatment by peroxidase within the disc (words)” value (“potentiation” below) is “potentiates the effects of the topical treatment in a concentration dependent manner”. Under “listed as horse radish peroxidise”, the “potentiation” value was “potentiate the effects of the topical treatment”. For the same substance, the “relative potency of horseradish peroxidase versus lactoperoxidase in enhancing fungal killing (words)” value (listed as horse radish peroxidase) is recorded as “more potent than lactoperoxidase”. Also, the “relative potency of horseradish peroxidase versus lactoperoxidase in enhancing fungal killing (words)” value (listed as horseradish peroxidise) is on record as “more efficacious”.
In the case of lactoperoxidase, the “effect of peroxidase in disc at lowest concentration compared to the test treatment alone” value is “no significant effect compared to the test treatment alone” and the “potentiation” value is reported as “potentiate the effects of the topical treatment in a concentration dependant manner”. Further, for the setting “listed as peroxidise”, the “potentiation” value was “potentiate the effects of the topical treatment”.

For the origin of these results see patent US8815234B2, “Treatment of human or animal body surface infection” (Insense Limited, priority 2009, dated 2014).
